# Data reported in patent publication US8415357B2 (Canbas Co., Ltd., priority 2007, dated 2013).
# Tested on: Jurkat cells
# Experiment: Adaptation to G2 cell cycle arrest (G1 increment) in X-ray pre-arrested Jurkat cells, flow cytometry
# Assay type: cell-based, human
# Settings: Homo sapiens, Jurkat, 24 h, Table 1; concentration causing half-maximal increase of % cells in G1 phase (G1 increment); Jurkat pre-arrested by 10 Gy X-ray, 24 hours with compound
# Procedure: Phenotype-based screening was used to measure the ability of compounds of the invention to cause adaptation to G2 cell cycle arrest in G2-arrested cells. Adaptation to G2 cell cycle arrest and re-entry into the cell cycle can result in death of the previously G2-arrested cell, or suppression (inhibition) of further proliferation of the previously G2-arrested cell. In a non-limiting embodiment, the ability to cause adaptation to G2 cell cycle arrest was measured by contacting cells in which G2 arrest had been induced by irradiation (e.g., gamma (γ) radiation or X-ray radiation), with compounds of the invention at various concentrations and, for each compound at each concentration, determining the percentage of cells that escaped G2 arrest and re-entered the cell cycle, by determining the percentage of cells in G1 phase. The IC50 value for each compound was calculated as the dosage (usually in μM) that caused half-maximal increase of the percentage of cells in G1 phase (the G1 increment) measured for that compound. Certain invention compounds were initially identified by phenotype-based screening of small molecule libraries for activity against G2-arrested cells as described above.
# Jurkat cells (a human T cell lymphoma-derived cell line) were arrested at the G2 phase by X-ray irradiation at 10 Gy, and cultured for 24 hours in 10% fetal calf serum (FCS)/RPMI1640 at 37° C. with 5% CO2/air. (FCS was from Equitech-Bio, Kerrville, Tex., and RPMI1640 was from Sigma-Aldrich, St. Louis, Mo.) Test compounds were added to the medium at the indicated doses, and the cells were cultured under the conditions described above, for an additional 24 hours before harvesting.
# Harvested cells were stained with Krishan's buffer (0.1% sodium citrate, 50 μg/ml propidium iodide, 20 μg/ml RNase A, 0.5% Nonidet P-40) and analyzed by flow cytometry (BD Biosciences, Franklin Lakes, N.J.) to identify the cell stage of each cell in the sample. Cells in G1 phase were identified by having […] (2N) DNA content.
# The IC50 value for each compound was calculated as the dosage showing half maximal activity to induce the increase of the percentage of cells in G1 phase (the G1 increment). IC50 values were used to measure the activity of compounds and to determine structure-activity relationships.
# Pre-arrested Jurkat cells were prepared as described in Example 1. Briefly, Jurkat cells were subjected to X-ray irradiation at a dose of 10 Gy, and cultured for 24 hours in 10% fetal calf serum (FCS)/RPMI1640 at 37° C. with 5% CO2/air, after which time cells were exposed to various concentrations of test compounds, and cultured under the conditions described above for an additional 24 hours before harvesting. Harvested cells were stained with Krishan's buffer (0.1% sodium citrate, 50 μg/ml propidium iodide, 20 μg/ml RNase A, 0.5% Nonidet P-40) and analyzed by flow cytometry (BD Biosciences, Franklin Lakes, N.J.) to identify the cell stage of each cell in the sample. Cells in G1 phase were identified by having […] (2N) DNA content.
# The IC50 value for each compound was calculated as the dosage (concentration in μM) that caused half-maximal increase of the percentage of cells in G1 phase (the G1 increment) measured for that test compound. Table 1 below presents the structure, mass, 1H NMR values, and […] values for representative compounds.
# The IC50 value for each compound was calculated as the dosage (concentration in μM) that caused half-maximal increase of the percentage of cells in G1 phase (the G1 increment) measured for that test compound. Table 2 below presents structures, IUPAC name, molecular formula, ID number (“SCID”), mass, 1H NMR values, and IC50 values for representative compounds. Table 3 presents structures, IUPAC name, molecular formula, ID number (“SCID”), mass, 1H NMR values, and IC50 values for further representative compounds.
row,IC50 [nM],SMILES
1,40000,CC1=C(C)C(=O)N(n2ccc3cc(C)ccc32)C1=O [Compound S00663]
2,15000,CC1=CC(=O)N(Nc2ccc(C(F)(F)F)c(Cl)n2)C1=O [Compound S00333]
3,10000,CC1=C(C)C(=O)N(Nc2ccc(C(F)(F)F)cc2Br)C1=O [Compound S00624]
4,20000,O=C1C(Cl)=C(Cl)C(=O)N1Cc1ccc(C(F)(F)F)cc1 [Compound S00409]
5,2500,CC1=C(C)C(=O)N(Nc2ccc(C)c(C(F)(F)F)c2)C1=O [Compound S00697]
6,10000,CC1=C(C)C(=O)N(Cc2ccc(C(F)(F)F)cc2)C1=O [Compound S00088]
7,10000,CC1=C(C)C(=O)N(Nc2ccc(C(F)(F)F)cc2Cl)C1=O [Compound S00699]
8,10000,CC1=C(C)C(=O)N(Nc2ccc(C)c(C)c2)C1=O [Compound S00452]
9,5000,CC1=C(C)C(=O)N(Nc2cc(C(F)(F)F)ccc2C)C1=O [Compound S00512]
10,2500,CC1=C(C)C(=O)N(Nc2ccc(Cl)c(C(F)(F)F)c2)C1=O [Compound S00405]
11,630,"CC1=C(C)C(=O)N(Nc2ccc(Cl)c3ccccc23)C1=O [Compound S00738, 1-[(4-chloronaphthyl)amino]-3,4-dimethylazoline-2,5-dione]"
12,2500,CC1=C(C)C(=O)N(Nc2cc(C(F)(F)F)cc(C(F)(F)F)c2)C1=O [Compound S00474]
13,5000,CC1=C(C)C(=O)N(Nc2nc3ccccc3s2)C1=O [Compound S00295]
14,5000,CC1=C(C)C(=O)N(Nc2ccc3ccccc3n2)C1=O [Compound S00362]
15,60000,COc1nc(NN2C(=O)C(C)=C(C)C2=O)ccc1C(F)(F)F [Compound S00451]
16,5000,CC1=C(C)C(=O)N(Cc2ccc(C(F)(F)F)c(Cl)c2)C1=O [Compound S00513]
17,10000,CC1=C(C)C(=O)N(Nc2cc(C(F)(F)F)ccc2Br)C1=O [Compound S00623]
18,5000,CC1=C(C)C(=O)N(Nc2ccc3cc(Cl)ccc3n2)C1=O [Compound S00622]
19,2500,CC1=C(C)C(=O)N(N(C)c2cc(Cl)cc(Cl)c2)C1=O [Compound S00587]
20,5000,CC1=C(C)C(=O)N(Nc2ccc3c(c2)C(C)(C)CCC3(C)C)C1=O [Compound S00698]
21,450,"CC1=C(C)C(=O)N(Nc2ccc3cccc(Cl)c3n2)C1=O [Compound S00585, 1-[(8-chloro(2-quinolyl))amino]-3,4-dimethylazoline-2,5-dione]"

# Same assay, conditions: Homo sapiens, Jurkat, 24 h, Table 2; concentration causing half-maximal increase of % cells in G1 phase (G1 increment); Jurkat pre-arrested by 10 Gy X-ray, 24 hours with compound
row,IC50 [nM],SMILES
1,120,"CC1=C(C)C(=O)N(N(C)c2ccc(C(F)(F)F)c(Br)n2)C1=O [Compound S01007, 1-{[6-bromo-5-(trifluoromethyl)(2-pyridyl)]methylamino}-3,4-dimethylazoline-2,5-dione]"
2,625,"CC1=C(C)C(=O)N(Nc2cc(Cl)c3cc(C)ccc3n2)C1=O [Compound S00935, 1-[(4-chloro-6-methyl(2-quinolyl))amino]-3,4-dimethylazoline-2,5-dione]"
3,625,"CC1=C(C)C(=O)N(Nc2cc(CN3CCN(Cc4ccccc4)CC3)c3ccc(Br)cc3n2)C1=O [Compound S01268, 1-[(7-bromo-4-{[4-benzylpiperazinyl]methyl}(2-quinolyl))amino]-3,4-dimethylazoline-2,5-dione]"
4,937,"CC1=C(C)C(=O)N(Nc2cc(CNC3CCN(C(=O)OC(C)(C)C)CC3)c3ccc(Br)cc3n2)C1=O [Compound S01862, tert-butyl 4-[({2-[(3,4-dimethyl-2,5-dioxoazolinyl)amino]-7-bromo-4-quinolyl}methyl)amino]piperidinecarboxylate]"
5,625,"CC1=C(C)C(=O)N(Nc2cc(Cl)nc(-c3ccccc3)c2C(F)(F)F)C1=O [Compound S01688, 1-{[6-chloro-2-phenyl-3-(trifluoromethyl)(4-pyridyl)]amino}-3,4-dimethylazoline-2,5-dione]"
6,200,"CC(=O)N(c1ccc(C(F)(F)F)c(Cl)n1)N1C(=O)C(C)=C(C)C1=O [Compound S01473, N-(3,4-dimethyl-2,5-dioxoazolinyl)-N-[6-chloro-5-(trifluoromethyl) (2-pyridyl)]acetamide]"
7,234,"CC1=C(C)C(=O)N(Nc2cc(CN3CCN(C(=O)c4ccccc4Cl)CC3)c3ccc(Br)cc3n2)C1=O [Compound S01878, 1-{[7-bromo-4-({4-[(2-chlorophenyl)carbonyl]piperazinyl}methyl) (2-quinolyl)]amino}-3,4-dimethylazoline-2,5-dione]"
8,625,"CC1=C(C)C(=O)N(Nc2cc(Cl)c3ccc4ccccc4c3n2)C1=O [Compound S01207, 1-[(4-chlorobenzo[h]quinolin-2-yl)amino]-3,4-dimethylazoline-2,5-dione]"
9,300,"CC1=C(C)C(=O)N(Nc2cc(Cl)c(Cl)c(Cl)c2)C1=O [Compound S00832, 3,4-dimethyl-1-[(3,4,5-trichlorophenyl)amino]azoline-2,5-dione]"
10,625,"CC1=C(C)C(=O)N(Nc2ccc(C(F)(F)F)c(-c3cccc(Cl)c3)n2)C1=O [Compound S01474, 1-{[6-(3-chlorophenyl)-5-(trifluoromethyl)(2-pyridyl)]amino}-3,4-dimethylazoline-2,5-dione]"
11,450,"CCC1=C(C)C(=O)N(Nc2ccc(C(F)(F)F)c(Cl)n2)C1=O [Compound S01553, 1-{[6-chloro-5-(trifluoromethyl)(2-pyridyl)]amino}-3-ethyl-4-methylazoline-2,5-dione]"
12,625,"CC1=C(C)C(=O)N(Nc2ccc(Cl)c3ccccc23)C1=O [Compound S00738, 1-[(4-chloronaphthyl)amino]-3,4-dimethylazoline-2,5-dione]"
13,300,"CC1=C(C)C(=O)N(Nc2ccc3cccc(Cl)c3n2)C1=O [Compound S00585, 1-[(8-chloro(2-quinolyl))amino]-3,4-dimethylazoline-2,5-dione]"

# Same assay, conditions: Homo sapiens, Jurkat, 24 h, Table 3; concentration causing half-maximal increase of % cells in G1 phase (G1 increment); Jurkat pre-arrested by 10 Gy X-ray, 24 hours with compound
row,IC50 [nM],SMILES
1,40,"CCC(C)OC(=O)CCC1=C(C)C(=O)N(Nc2ccc(C(F)(F)F)c(Cl)n2)C1=O (centres unmarked) [Compound S02264, Methylpropyl 3-(1-{[6-chloro-5-(trifluoromethyl) (2-pyridyl)]amino}-4-methyl-2,5-dioxoazolin-3-yl) propanoate]"
2,60,"CC1=C(CCOCC(C)C)C(=O)N(Nc2ccc(C(F)(F)F)c(Cl)n2)C1=O [Compound S03955, 1-{[6-chloro-5-(trifluoromethyl)(2-pyridyl)]amino}-4-methyl-3-[2-(2-methylpropoxy)ethyl]azoline-2,5-dione]"
3,40,"CCOCCC1=C(C)C(=O)N(Nc2ccc(C(F)(F)F)c(Cl)n2)C1=O [Compound S03960, 1-{[6-chloro-5-(trifluoromethyl)(2-pyridyl)]amino}-3-(2-ethoxyethyl)-4-methylazoline-2,5-dione]"
4,< 19,"CC1=C(COCC(C)C)C(=O)N(Nc2ccc(C(F)(F)F)c(Cl)n2)C1=O [Compound S03963, 1-{[6-chloro-5-(trifluoromethyl)(2-pyridyl)]amino}-4-methyl-3-[(2-methylpropoxy)methyl]azoline-2,5-dione]"
5,156,"CC1=C(CCC2(C)OCCO2)C(=O)N(Nc2ccc(C(F)(F)F)c(Cl)n2)C1=O [Compound S03456, 1-{[6-chloro-5-(trifluoromethyl) (2-pyridyl)]amino}-4-methyl-3-[2-(2-methyl (1,3-dioxolan-2-yl))ethyl]azoline-2,5-dione]"

row,SMILES,IC50 [nM]
1,"CC1=C(CCOCCC(C)C)C(=O)N(Nc2ccc(C(F)(F)F)c(Cl)n2)C1=O [Compound S03956, 1-{[6-chloro-5-(trifluoromethyl)(2-pyridyl)]amino}-4-methyl-3-[2-(3-methylbutoxy)ethyl]azoline-2,5-dione]",156
2,"CC1=C(COC(C)(C)C)C(=O)N(Nc2ccc(C(F)(F)F)c(Cl)n2)C1=O [Compound S03873, 4-[(tert-butoxy)methyl]-1-{[6-chloro-5-(trifluoromethyl)(2-pyridyl)]amino}-3-methylazoline-2,5-dione]",20
